Results taken from patent US5344841A, “Bis-(hydroxylakylamino)-anthraquinone inhibitors of protein kinase C” (Sphinx Pharmaceuticals Corporation, priority 1992, dated 1994).

How the values were obtained:
human neutrophils = experiment: Neutrophil superoxide anion (O2-) release assay, PMA-stimulated; type: cell-based; details: Homo sapiens, Neutrophil, PMA-stimulated O2- production
Procedure: Neutrophils were isolated form whole blood collected from human volunteers. All reagent materials were obtained from Sigma Chemical Company with the exception of isotonic saline (Travenol Lab., Inc. Deerfield, Ill.) and lymphocyte separation medium (Organon Teknika, Durham, N.C.). Whole blood was drawn and mixed with sodium heparin (final conc. 10 units/ml) to prevent clotting. An equal volume of dextran (3.0%) in isotonic saline was added, mixed, and allowed to settle for 30 min to bind red blood cells (RBC). The supernatant was removed, underlayered with lymphocyte separation medium and centrifuged for 40 min at 400 xg in a centrifuge (Beckman GPR, Norcross, Ga.). […] The washed pellet was resuspended in 10 ml HBSS and placed on ice before counting on a hemacytometer. The neutrophil cell concentration is adjusted to 2×10^6 cells/ml with HBSS before adding 0.8 ml cells to 12×75 mm polypropylene test tubes (Fisher Scientific). Test agents are diluted to determine dose response and added at 10×final concentration at a volume of 0.1 ml/tube in duplicate. […] Tubes are then centrifuged at 900 xg for 10 min, 0.5 ml supernatant is removed and added to 0.5 ml H2 O in a microcuvette. Optical density (OD) of cytochrome c is read in a spectrophotometer (Shimadzu) at 550 nm. The ΔOD of cytochrome c is obtained between PMA-stimulated and non-stimulated tubes, and the dose responses of the test agents are compared to the positive controls (which contain HBSS in place of test agents). PMA stimulates O2^- production which reduces cytochrome c. Reducing cytochrome c increases its absorbance, and the change in OD of cytochrome c is proportional to the amount of O2^- produced by PMA stimulation. Inhibition of the O2^- burst by test compounds of the invention is seen as a reduction in the change in optical density. Inhibition is expressed as IC50 μM and is the amount of test compound that will inhibit fifty percent of the PMA-stimulated respiratory outburst, i.e. O2^- production.

[1] = test system: 8226/MT Mitoxantrone resistant line of 8226 cells; experiment: Human tumor growth inhibition, 3H-thymidine incorporation, 8226/MT
NHEK human keratinocytes = experiment: Human keratinocyte inhibition, 3H-thymidine incorporation; type: cell-based
Procedure: Human tumor cells are trypsinized (0.05% trypsin, GIBCO), counted with a hemacytometer and seeded at a concentration of 10,000 cells/well in a 96 well microtiter plate. After allowing cells to attach to the surface overnight, the culture medium is aspirated and replaced with 100 μl of fresh medium. Test agents are diluted to determine dose response at 2× final concentration and added in quadruplicate at 100 μl/well to bring the total volume of each well to 200 μl. The microtiter plate is then incubated at 37° C. 5% CO2 overnight (18-24 hrs) before ^3 H-thymidine is added at a concentration of 0.5 μCi/well in 50 μl culture medium. The plate is incubated again for 4 hrs under the same conditions as above. […] Cells are checked microscopically to determine detachment from surfaces, and plates are then harvested with a cell harvester (PHD, Cambridge Technology, Inc.) Filter papers corresponding to wells are placed in scintillation vials and counted to determine the amount of ^3 H-thymidine incorporated by the cells. […]
Proliferating keratinocytes (NHEK cells purchased from Clonetics, Inc. San Diego, Calif.) in second passage were grown in Keratinocyte Growth Medium (KGM) (Clonetics, Inc.) Cells were trypsinized with 0.025% trypsin (Clonetics), counted with a hemacytometer (Scientific Products), and seeded at a concentration of 2,500 cells/well in a 96 well microtiter plate. […]

`CCN(CC)CC(O)CNc1ccc(NCC2CO2)c2c1C(=O)c1ccccc1C2=O` (centres unmarked) [Compound 1b-1, 1-(3-diethylamino-2-hydroxypropylamino)-4-(2,3-epoxypropylamino)-9, 10-anthracenedione] was tested, and the IC50 (human neutrophils) was > 25000 nM, the “Resistance Ratio (8226/MT)” value ([1]; 8226/MT vs 8226) was 0.13 and the IC50 ([1]; Homo sapiens, read-out: IC50 8226/MT) was 8 nM. The “ratio of IC50 for 8226 cells to IC50 for 8226/MT cells” value ([1]; text wording of ratio) was 0.13 and the IC50 (NHEK human keratinocytes) was 40 nM.
